Source: PMC8808744 (ACS chemical biology, 2019)
Values after ≈ are worked out from the molar mass of the structure shown.

Key:
[1] = biological target: Slt (Pseudomonas aeruginosa, UniProt Q9HZI6); test: biochemical; format: binding
[2] = biological target: MltDsol (Pseudomonas aeruginosa, UniProt Q9I2T2); test: biochemical; format: binding
[3] = biological target: Ec MltGsol (Escherichia coli, UniProt P28306); test: Dissociation constant by non-denaturing mass spectrometry, E. coli MltGsol; format: binding
Chain of Ec MltGsol (P28306 25-340 with tags or gaps limits assumed): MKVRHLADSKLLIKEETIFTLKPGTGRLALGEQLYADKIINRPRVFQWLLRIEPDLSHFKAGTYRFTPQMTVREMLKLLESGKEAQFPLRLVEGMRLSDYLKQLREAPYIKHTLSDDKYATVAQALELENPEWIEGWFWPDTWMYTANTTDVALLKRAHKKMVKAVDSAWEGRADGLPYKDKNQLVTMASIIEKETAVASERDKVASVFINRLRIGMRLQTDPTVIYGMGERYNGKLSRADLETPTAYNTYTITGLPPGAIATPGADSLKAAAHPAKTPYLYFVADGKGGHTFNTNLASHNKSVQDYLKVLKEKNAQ

[4] = biological target: SltB1 (Pseudomonas aeruginosa, UniProt Q9HX24); test: biochemical; format: binding
Chain of SltB1 (Q9HX24 34-340 limits assumed): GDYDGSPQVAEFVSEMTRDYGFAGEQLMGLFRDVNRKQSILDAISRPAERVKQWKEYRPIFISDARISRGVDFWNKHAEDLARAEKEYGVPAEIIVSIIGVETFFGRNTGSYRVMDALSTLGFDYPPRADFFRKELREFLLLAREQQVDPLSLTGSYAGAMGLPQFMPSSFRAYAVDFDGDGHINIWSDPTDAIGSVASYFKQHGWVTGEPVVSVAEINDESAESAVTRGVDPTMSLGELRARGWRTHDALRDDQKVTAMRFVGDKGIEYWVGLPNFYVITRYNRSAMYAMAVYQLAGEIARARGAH

[5] = test system: P. aeruginosa PAO1; format: cell-based, Pseudomonas aeruginosa
[6] = test system: P. aeruginosa PAO1; test: MIC against parent strain PAO1; format: cell-based; details: Pseudomonas aeruginosa
[7] = test system: wild-type P. aeruginosa PAO1; test: Growth-curve assay in liquid medium; format: cell-based, Pseudomonas aeruginosa; details: CAZ at 0.28 μg mL^−1, MEM at 0.14 μg mL^−1 (sub-MIC)

Chain of MltDsol (Q9I2T2 32-534 limits assumed): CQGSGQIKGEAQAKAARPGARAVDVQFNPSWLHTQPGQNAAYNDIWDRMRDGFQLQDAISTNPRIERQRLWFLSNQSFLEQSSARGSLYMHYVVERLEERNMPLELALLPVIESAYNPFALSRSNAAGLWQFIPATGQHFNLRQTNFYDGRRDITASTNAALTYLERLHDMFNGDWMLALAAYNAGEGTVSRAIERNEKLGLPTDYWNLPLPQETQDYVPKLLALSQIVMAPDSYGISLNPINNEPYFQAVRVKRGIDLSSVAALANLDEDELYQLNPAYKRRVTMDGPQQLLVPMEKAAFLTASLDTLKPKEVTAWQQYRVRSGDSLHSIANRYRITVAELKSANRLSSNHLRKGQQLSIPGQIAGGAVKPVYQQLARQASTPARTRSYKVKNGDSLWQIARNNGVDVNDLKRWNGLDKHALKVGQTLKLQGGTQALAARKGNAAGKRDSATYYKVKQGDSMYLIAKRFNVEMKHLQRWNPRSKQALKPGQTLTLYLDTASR
Chain of Slt (Q9HZI6 25-642 limits assumed): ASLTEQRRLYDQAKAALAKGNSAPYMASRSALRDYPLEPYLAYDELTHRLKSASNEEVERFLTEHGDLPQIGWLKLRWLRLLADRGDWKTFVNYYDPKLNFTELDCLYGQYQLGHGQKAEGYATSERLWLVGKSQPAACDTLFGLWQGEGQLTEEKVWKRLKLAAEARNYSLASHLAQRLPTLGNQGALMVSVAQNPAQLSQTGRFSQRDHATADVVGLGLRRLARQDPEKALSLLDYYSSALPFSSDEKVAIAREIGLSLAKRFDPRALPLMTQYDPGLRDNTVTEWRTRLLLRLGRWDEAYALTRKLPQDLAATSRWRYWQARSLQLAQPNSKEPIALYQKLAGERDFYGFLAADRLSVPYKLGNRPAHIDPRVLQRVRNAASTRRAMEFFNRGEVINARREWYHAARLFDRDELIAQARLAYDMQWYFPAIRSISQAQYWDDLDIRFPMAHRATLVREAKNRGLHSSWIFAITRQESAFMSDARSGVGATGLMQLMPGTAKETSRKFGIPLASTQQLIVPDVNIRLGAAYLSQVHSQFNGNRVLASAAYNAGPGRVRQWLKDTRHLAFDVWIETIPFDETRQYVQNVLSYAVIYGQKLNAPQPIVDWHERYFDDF

## CC(=O)N[C@H]1[C@H](O[C@H]2C[C@@H](C(=O)NCCS(=O)(=O)O)N[C@@H]2CO)O[C@H](CO)[C@@H](OS(=O)(=O)O)[C@@H]1O [Bulgecin A]
[1]
  Kd: 8.5 ± 1.1 µM
[2]
  Kd: 1.4 ± 0.3 µM
[3]
  Kd: 24 ± 5.1 µM
[4]
  Kd: 160 ± 21 µM
[5]
  recovery of CAZ/bulgecin A-damaged bacteria: delayed recovery

## CC(C)(O/N=C(\C(=O)N[C@@H]1C(=O)N2C(C(=O)[O-])=C(C[n+]3ccccc3)CS[C@H]12)c1csc(N)n1)C(=O)O [CAZ, Ceftazidime]
[6]
  MIC: 0.5 µg/mL (≈ 0.915 µM)
[7]
  growth of wild-type PAO1 with β-lactam alone: normal growth

## C[C@@H](O)[C@H]1C(=O)N2C(C(=O)O)=C(S[C@@H]3CN[C@H](C(=O)N(C)C)C3)[C@H](C)[C@H]12 [MEM, Meropenem]
[6]
  MIC: 0.5 µg/mL (≈ 1.3 µM)
[7]
  growth of wild-type PAO1 with β-lactam alone: normal growth
